Reference: paper PMC3425833, “Synthesis, Urease Inhibition, Antioxidant, Antibacterial, and Molecular Docking Studies of 1,3,4-Oxadiazole Derivatives” (ISRN Pharmacology, 2012)
Values after ≈ are worked out from the molar mass of the structure shown. “Also recorded” adds a separate entry of the source. Where two headings read alike, the source gives them in different places.

Key:
[1] = DPPH radical scavenging (antioxidant) assay; conditions: for IC50: DPPH 300 μM, half an hour at 37°C; for DPPH radical scavenging activity compared to standard propyl gallate: in words
Method: The free radical scavenging capacity of the compounds was measured by 1,1-diphenyl-2-picrylhydrazyl. Test compounds were allowed to react with stable free radical, 1,1-diphenyl-2-picrylhydrazyl radical (DPPH) for half an hour at 37°C. The concentration of DPPH was kept as 300 μM. The test samples were dissolved in DMSO while the DPPH solution was prepared in ethanol. After incubation, decrease in absorption was measured at 515 nm using microplate reader. Percent radical scavenging activity of samples was determined in comparison with a DMSO treated as control. Propyl gallate and 3-tert-Butyl-4-hydroxyanisole were used as standards.

Escherichia coli = assay: Antibacterial activity, serial tube dilution MIC; type: cell-based; conditions: for MIC: Escherichia coli, 24 h, read-out: MIC E. coli; for Antibacterial activity against E. coli compared to standard ciprofloxacin: in words
Method: (§1) The antibacterial activity data is represented in Table 2. […] Ciprofloxacin was used as standard drug. The compounds were found active against bacterial strains (2 Gram positive bacteria, namely, Staphylococcus aureus, Bacillus subtilis, and 2 Gram negative bacteria namely Escherichia coli, Shigella flexneri) in variable concentration. The antibacterial activities of 1,3,4-oxadiazole derivatives were evaluated in vitro by serial tube dilution method. The compounds and standard drug ciprofloxacin were dissolved in N,N-dimethylformamide (DMF) to give a concentration of 5 μg/mL (stock solution). Necessary apparatus and test tubes set of capacity 5 mL was washed cleaned and completely dried. For the bacterial culture double strength nutrient broth was used. The culture media was made by dissolving 15 g of nutrient broth in 1 L of distilled water. Approximately, 1 mL of culture media was prepared and transferred to each test tube by micropipette and capped with non-adsorbent cotton plugs. The test tubes containing 1 mL culture media was sterilized in an autoclave at 121°C for 20 min at 15 psi pressure. Sub-culturing of bacteria was done by transferring a loopful of particular bacterial strain from standard bacterial agar to 10 mL sterilized nutrient broth aseptically in a laminar air flow cabinet. It was then incubated for a period of 24 h at 37°C in a B. O. D. incubator. Bacterial strain suspension was prepared, after 24 h incubation, by aseptically inoculating 0.2 mL of revived bacterial colony into 100 mL of 0.9% m/v saline. A series of 5 assay tubes for a single derivative against each bacterial strain was employed. A stock solution of each test derivative at concentration 5 μg/mL (containing 1 mL nutrient broth) was serially diluted to achieve concentrations of 2.5, 1.25, 0.625, 0.313, and 0.156 μg/mL. Then, 0.1 mL of normal saline suspension of revived bacteria was added to each test tube. The inoculated tubes were incubated at 37°C for 24 h. The MIC (minimum inhibitory concentration) values were determined by subsequently checking for the absence of visual turbidity.

Staphylococcus aureus = assay: Antibacterial activity, serial tube dilution MIC; type: cell-based; conditions: for MIC: Staphylococcus aureus, read-out: MIC S. aureus; for Antibacterial activity against S. aureus compared to standard ciprofloxacin: in words
Method: as §1

Bacillus subtilis = assay: Antibacterial activity, serial tube dilution MIC; type: cell-based; conditions: for MIC: Bacillus subtilis, read-out: MIC B. subtilus
Method: as §1

Shigella flexneri = assay: Antibacterial activity, serial tube dilution MIC; type: cell-based; conditions: for MIC: Shigella flexneri, read-out: MIC S. flexneri; for Antibacterial activity against S. flexneri compared to standard ciprofloxacin: in words
Method: as §1

Jack bean urease = Jack bean urease (Canavalia ensiformis, UniProt P07374); assay: biochemical; type: biochemical; conditions: for Urease inhibitory activity in words: qualitative statement
Jack bean urease, sequence (P07374 whole entry, looked up): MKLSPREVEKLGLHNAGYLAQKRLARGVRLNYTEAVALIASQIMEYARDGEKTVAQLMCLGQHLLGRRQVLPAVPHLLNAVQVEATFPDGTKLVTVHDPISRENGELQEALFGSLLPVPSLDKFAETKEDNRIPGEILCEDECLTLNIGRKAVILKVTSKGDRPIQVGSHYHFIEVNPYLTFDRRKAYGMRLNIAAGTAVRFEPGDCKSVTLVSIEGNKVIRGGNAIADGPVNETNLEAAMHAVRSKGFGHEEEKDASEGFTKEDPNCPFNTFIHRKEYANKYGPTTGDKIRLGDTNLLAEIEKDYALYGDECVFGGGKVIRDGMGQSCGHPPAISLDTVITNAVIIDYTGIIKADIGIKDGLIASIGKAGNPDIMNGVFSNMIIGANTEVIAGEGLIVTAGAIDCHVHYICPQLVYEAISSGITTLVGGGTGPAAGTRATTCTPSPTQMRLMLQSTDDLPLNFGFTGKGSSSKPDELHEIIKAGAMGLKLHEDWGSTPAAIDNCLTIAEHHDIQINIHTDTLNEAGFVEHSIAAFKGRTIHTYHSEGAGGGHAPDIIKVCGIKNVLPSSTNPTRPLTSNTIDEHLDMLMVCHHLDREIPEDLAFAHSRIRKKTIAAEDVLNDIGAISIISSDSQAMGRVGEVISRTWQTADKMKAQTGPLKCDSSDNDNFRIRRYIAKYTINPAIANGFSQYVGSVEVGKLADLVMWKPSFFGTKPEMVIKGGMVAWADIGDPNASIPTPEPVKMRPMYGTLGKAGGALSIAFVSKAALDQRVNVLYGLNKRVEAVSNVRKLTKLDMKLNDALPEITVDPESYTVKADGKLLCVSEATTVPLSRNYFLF

[2] = average of three readings, 24 h at 37°C

| SMILES | IC50 [1] [µM] | MIC (Escherichia coli; [2]) [µg/mL] | MIC (Staphylococcus aureus; [2]) [µg/mL] | MIC (Bacillus subtilis; [2]) [µg/mL] | MIC (Shigella flexneri; 24 h) [µg/mL] | MIC (Escherichia coli) [µg/mL] | Antibacterial activity against B. subtilus relative to ciprofloxacin (Bacillus subtilis) [fold] | MIC (Shigella flexneri; [2]) [µg/mL] | Antibacterial activity against S. flexneri compared to standard ciprofloxacin (Shigella flexneri) | IC50 (Jack bean urease) [µM] | Antibacterial activity against S. aureus compared to standard ciprofloxacin (Staphylococcus aureus) | MIC (Bacillus subtilis; 24 h) [µg/mL] | Urease inhibitory activity in words (Jack bean urease) | Antibacterial activity against E. coli compared to standard ciprofloxacin (Escherichia coli) | DPPH radical scavenging activity compared to standard propyl gallate [1] | MIC (Staphylococcus aureus; 24 h) [µg/mL] | Urease inhibitory activity relative to the standard (thiourea) (Jack bean urease; more active than the standard) [fold] | inhibition at 100 µM (Jack bean urease; read-out: % inhibition of Jack bean urease) [%] | IC50 (Jack bean urease; triplicate, thiourea standard, read-out: IC50 ± SEM, inhibitory activity against Jack bean urease) [µM] |
| --- | --- | --- | --- | --- | --- | --- | --- | --- | --- | --- | --- | --- | --- | --- | --- | --- | --- | --- | --- |
| COc1ccc(O)c(C(C)(C)C)c1 [3-tert-Butyl-4-hydroxyanisole, reference compound] | 28.2 ± 1.1 |  |  |  |  |  |  |  |  |  |  |  |  |  |  |  |  |  |  |
| O=C(O)c1cn(C2CC2)c2cc(N3CCNCC3)c(F)cc2c1=O [Ciprofloxacin, reference compound] |  | 0.156 (≈ 0.471 µM) | 0.156 (≈ 0.471 µM) | 0.625 (≈ 1.89 µM) | 0.31 (≈ 0.936 µM) |  |  |  |  |  |  |  |  |  |  |  |  |  |  |
| COc1ccc(-c2n[nH]c(=S)o2)c(OC)c1OC [Compound 4a, 5-(2,3,4-Trimethoxyphenyl)-1,3,4-oxadiazole-2(3H)-thione] | 123 ± 5.1 |  | 1.25 (≈ 4.66 µM) | 0.156 (≈ 0.581 µM) |  | 0.313 (≈ 1.17 µM) | 4 | 0.313 (≈ 1.17 µM) | equipotent activity | 5.79 ± 0.3 |  |  |  |  |  |  |  |  |  |
| S=c1[nH]nc(-c2cc3ccccc3[nH]2)o1 [Compound 4b, 5-(1H-Indol-2-yl)-1,3,4-oxadiazole-2(3H)-thione] | 107 ± 3.4 | 0.625 (≈ 2.88 µM) | 0.156 (≈ 0.718 µM) |  |  |  |  | 0.313 (≈ 1.44 µM) | equipotent activity | 21.3 ± 0.7 | equipotent activity | 0.313 (≈ 1.44 µM) | nearly same activity |  |  |  |  |  |  |
| S=c1[nH]nc(Cc2ccc(Br)cc2)o1 [Compound 4c, 5-(4-Bromobenzyl)-1,3,4-oxadiazole-2(3H)-thione] | 38 ± 4.1 | 2.5 (≈ 9.22 µM) | 0.625 (≈ 2.31 µM) |  |  |  | 4 | 0.156 (≈ 0.575 µM) | two-fold activities | 11.8 ± 0.4 |  | 0.156 (≈ 0.575 µM) |  | considerably less active | more effective |  |  |  |  |
| S=c1[nH]nc(Cc2ccc(Cl)c(Cl)c2)o1 [Compound 4e, 5-(3,4-Dichlorobenzyl)-1,3,4-oxadiazole-2(3H)-thione] | 59 ± 6.3 | 0.156 (≈ 0.597 µM) |  | 0.625 (≈ 2.39 µM) |  |  |  | 0.313 (≈ 1.2 µM) | equipotent activity | 11.3 ± 0.6 |  |  |  | equipotent |  | 0.313 (≈ 1.2 µM) |  |  |  |
| Fc1ccccc1Cc1n[nH]c(=S)o1 [Compound 4f, 5-(2-Fluorobenzyl)-1,3,4-oxadiazole-2(3H)-thione] | 46.6 ± 4.6 | 0.313 (≈ 1.49 µM) | 0.156 (≈ 0.742 µM) | 0.156 (≈ 0.742 µM) |  |  | 4 | 1.25 (≈ 5.95 µM) |  | 3.27 ± 0.3 | equipotent activity |  |  |  |  |  |  |  |  |
| COc1ccc(CCc2n[nH]c(=S)o2)cc1 [Compound 4g, 5-(4-Methoxyphenethyl)-1,3,4-oxadiazole-2(3H)-thione] | 50.8 ± 2.1 | 0.156 (≈ 0.66 µM) | 2.5 (≈ 10.6 µM) | 0.625 (≈ 2.64 µM) |  |  |  | 0.313 (≈ 1.32 µM) | equipotent activity | 5.61 ± 0.3 |  |  |  | equipotent |  |  |  |  |  |
| S=c1[nH]nc(Cc2ccc(Cl)cc2Cl)o1 [Compound 4h, 5-(2,4-Dichlorobenzyl)-1,3,4-oxadiazole-2(3H)-thione] | 57.8 ± 1.8 | 1.25 (≈ 4.79 µM) | 0.625 (≈ 2.39 µM) |  |  |  | 4 | 0.156 (≈ 0.597 µM) | two-fold activities | 42.4 ± 1.2 |  | 0.156 (≈ 0.597 µM) | weak inhibitory activities | considerably less active |  |  |  |  |  |
| COc1ccccc1CCc1n[nH]c(=S)o1 [Compound 4i, 5-(2-Methoxyphenethyl)-1,3,4-oxadiazole-2(3H)-thione] | 40.2 ± 3.3 | 0.156 (≈ 0.66 µM) |  | 0.625 (≈ 2.64 µM) |  |  |  | 0.313 (≈ 1.32 µM) | equipotent activity | 6.22 ± 0.4 |  |  |  | equipotent | Equipotent | 0.313 (≈ 1.32 µM) |  |  |  |
| S=c1[nH]nc(Cc2ccc(Cl)cc2)o1 [Compound 4j, 5-(4-Chlorobenzyl)-1,3,4-oxadiazole-2(3H)-thione] | 51.6 ± 2.1 | 0.313 (≈ 1.38 µM) | 0.313 (≈ 1.38 µM) | 1.25 (≈ 5.51 µM) |  |  |  | 0.156 (≈ 0.688 µM) | two-fold activities | 1.15 ± 0.2 |  |  |  |  |  |  | 20 |  |  |
| S=c1[nH]nc(Cc2ccccc2Cl)o1 [Compound 4k, 5-(2-Chlorobenzyl)-1,3,4-oxadiazole-2(3H)-thione] | 34.4 ± 3.2 |  |  | 0.313 (≈ 1.38 µM) |  | 0.156 (≈ 0.688 µM) |  | 0.156 (≈ 0.688 µM) | two-fold activities | 12.9 ± 0.6 | equipotent activity |  |  | equipotent | more effective | 0.156 (≈ 0.688 µM) |  |  |  |
| COc1ccc(Cc2n[nH]c(=S)o2)cc1 [Compound 4l, 5-(4-Methoxybenzyl)-1,3,4-oxadiazole-2(3H)-thione] | 88.2 ± 4.1 | 0.313 (≈ 1.41 µM) | 0.625 (≈ 2.81 µM) | 2.5 (≈ 11.2 µM) |  |  |  | 0.156 (≈ 0.702 µM) | two-fold activities | 5.83 ± 0.08 |  |  |  |  |  |  |  |  |  |
| COc1ccccc1Cc1n[nH]c(=S)o1 [Compound 4m, 5-(2-Methoxybenzyl)-1,3,4-oxadiazole-2(3H)-thione] | 42.7 ± 3.7 | 0.625 (≈ 2.81 µM) | 1.25 (≈ 5.62 µM) | 0.156 (≈ 0.702 µM) |  |  | 4 | 0.313 (≈ 1.41 µM) | equipotent activity | 5.6 ± 0.6 |  |  |  |  |  |  |  |  |  |
| COc1cccc(Cc2n[nH]c(=S)o2)c1 [Compound 4n, 5-(3-Methoxybenzyl)-1,3,4-oxadiazole-2(3H)-thione] | 60.3 ± 4.3 | 0.625 (≈ 2.81 µM) |  |  |  |  | 4 | 0.156 (≈ 0.702 µM) | two-fold activities | 12.2 ± 0.05 | equipotent activity | 0.156 (≈ 0.702 µM) |  |  |  | 0.156 (≈ 0.702 µM) |  |  |  |
| COc1cccc(CCc2n[nH]c(=S)o2)c1 [Compound 4o, 5-(3-Methoxyphenethyl)-1,3,4-oxadiazole-2(3H)-thione] | 43.6 ± 3.1 | 0.313 (≈ 1.32 µM) | 2.5 (≈ 10.6 µM) | 0.625 (≈ 2.64 µM) |  |  |  | 0.156 (≈ 0.66 µM) | two-fold activities | 15.1 ± 0.8 |  |  |  |  |  |  |  |  |  |
| Fc1cc(Cl)ccc1-c1n[nH]c(=S)o1 [Compound 4r, 5-(4-Chloro-2-fluorophenyl)-1,3,4-oxadiazole-2(3H)-thione] | 10.8 ± 0.2 |  | 0.156 (≈ 0.676 µM) |  |  |  |  | 0.313 (≈ 1.36 µM) | equipotent activity |  | equipotent activity | 0.313 (≈ 1.36 µM) | weak inhibitory activities | equipotent; also recorded: considerably less active | four-fold |  |  | 39 |  |
| CCCOC(=O)c1cc(O)c(O)c(O)c1 [Propyl gallate, reference compound] | 40.8 ± 1.2 |  |  |  |  |  |  |  |  |  |  |  |  |  |  |  |  |  |  |
| NC(N)=S [Thiourea, reference compound] |  |  |  |  |  |  |  |  |  |  |  |  |  |  |  |  |  |  | 22.3 ± 1.2 |
